Data reported in patent US7109332B2, “2,4-dioxo-3-quinazolinylaryl sulfonylureas” (Portola Pharmaceuticals, Inc., priority 2003, dated 2006).

system: ADP-induced human platelet aggregation; assay: Inhibition of ADP-mediated platelet aggregation in vitro (PRP assay); type: cell-based; settings: 2 μM ADP, 96-well microtiter assay
Experimental: I. Inhibition of ADP-Mediated Platelet Aggregation In Vitro
The effect of testing the compound according to the invention on ADP-induced human platelet aggregation is preferably assessed in 96-well microtiter assay (see generally the procedures in Jantzen, H. M. et al. (1999) Thromb. Hemost. 81:111–117). Human venous blood is collected from healthy, drug-free volunteers into ACD (85 mM sodium citrate, 111 mM glucose, 71.4 mM citric acid) containing PGI2 (1.25 ml ACD containing 1.6 μM PGI2/10 ml blood; PGI2 was from Sigma, St. Louis, Mo.). Platelet-rich plasma (PRP) is prepared by centrifugation at 160×g for 20 minutes at room temperature. Washed platelets are prepared by centrifuging PRP for 10 minutes at 730×g and resuspending the platelet pellet in CGS (13 mM sodium citrate, 30 mM glucose, 120 mM NaCl; 2 ml CGS/10 ml original blood volume) containing 1U/ml apyrase (grade V, Sigma, St. Louis, Mo.). After incubation at 37° C. for 15 minutes, the platelets are collected by centrifugation at 730×g for 10 minutes and resuspended at a concentration of 3×10^8 platelets/ml in Hepes-Tyrode's buffer (10 mM Hepes, 138 mM NaCl, 5.5 mM glucose, 2.9 mM KCl, 12 mM NaHCO3, pH 7.4) containing 0.1% bovine serum albumin, 1 mM CaCl2 and 1 mM MgCl2. This platelet suspension is kept >45 minutes at 37° C. before use in aggregation assays.
Inhibition of ADP-dependent aggregation is preferably determined in 96-well flat-bottom microtiter plates using a microtiter plate shaker and plate reader similar to the procedure described by Frantantoni et al., Am. J. Clin. Pathol. 94, 613 (1990). All steps are performed at room temperature. The total reaction volume of 0.2 ml/well includes in Hepes-Tyrodes buffer/0.1% BSA: 4.5×10^7 apyrase-washed platelets, 0.5 mg/ml human fibrinogen (American Diagnostica, Inc., Greenwich, Conn.), serial dilutions of test compounds (buffer for control wells) in 0.6% DMSO. After about 5 minutes preincubation at room temperature, ADP is added to a final concentration of 2 μM which induces submaximal aggregation. Buffer is added instead of ADP to one set of control wells (ADP^− control). The OD of the samples is then determined at 490 nm using a microtiter plate reader (Softmax, Molecular Devices, Menlo Park, Calif.) resulting in the 0 minute reading. The plates are then agitated for 5 min on a microtiter plate shaker and the 5 minute reading is obtained in the plate reader. Aggregation is calculated from the decrease of OD at 490 nm at t=5 minutes compared to t=0 minutes and is expressed as % of the decrease in the ADP control samples after correcting for changes in the unaggregated control samples.
The table below provides activity for selected compounds of the invention, evaluated as described above. In the table below, activity in the PRP assay is provided as follows: +++, IC50<10 μM; ++, 10 μM<IC50<30 μM; and +, IC50>30 μM.

Row | Compound | IC50
1 | O=C(NS(=O)(=O)c1ccc(Cl)s1)c1ccc(-n2c(=O)[nH]c3cc(NCc4ccc(F)cc4)ccc3c2=O)cc1F [Example 113, 4-(7-(4-fluorobenzylamino)-2,4-dioxo-1,2-dihydroquinazolin-3(4H)-yl)-N-(5-chlorothiophen-2-ylsulfonyl)-2-fluorobenzamide] | < 10 µM
2 | Cc1cc(NC(=O)NS(=O)(=O)c2cccs2)ccc1-n1c(=O)[nH]c2cc(NCc3ccc(Cl)cc3)ccc2c1=O [Example 16] | < 10 µM
3 | Cn1ccnc1CNc1ccc2c(=O)n(-c3ccc(NC(=O)NS(=O)(=O)c4ccc(Cl)s4)cc3)c(=O)[nH]c2c1 [Example 77] | > 30 µM
4 | COc1cccc(CNc2ccc3c(=O)n(-c4ccc(NC(=O)NS(=O)(=O)c5ccc(Cl)s5)cc4)c(=O)[nH]c3c2)c1 [Example 41] | 10 to 30 µM
5 | O=C(Nc1ccc(-n2c(=O)[nH]c3cc(NCc4ccsc4)ccc3c2=O)cc1)NS(=O)(=O)c1ccc(Cl)s1 [Example 57] | < 10 µM
6 | O=C(Nc1ccc(-n2c(=O)[nH]c3cc(NCc4ccc(F)cc4)ccc3c2=O)cc1)NS(=O)(=O)c1ccc(Cl)s1 [Example 21] | < 10 µM
7 | Cc1c(F)cccc1CNc1ccc2c(=O)n(-c3ccc(NC(=O)NS(=O)(=O)c4ccc(Cl)s4)cc3)c(=O)[nH]c2c1 [Example 100] | < 10 µM
8 | O=C(Nc1ccc(-n2c(=O)[nH]c3cc(NCc4ccccc4)ccc3c2=O)cc1)NS(=O)(=O)c1ccc(Cl)s1 [Example 3] | < 10 µM
9 | Cc1cc(-n2c(=O)[nH]c3cc(NCc4ccc(F)cc4)ccc3c2=O)ccc1NC(=O)NS(=O)(=O)c1ccc(Cl)s1 [Example 5, 1-(4-(7-(4-fluorobenzylamino)-2,4-dioxo-1,2-dihydroquinazolin-3(4H)-yl)-2-methylphenyl)-3-(5-chlorothiophen-2-ylsulfonyl)urea] | < 10 µM
10 | O=C(Nc1ccc(-n2c(=O)[nH]c3cc(NCc4ccc(F)cc4F)ccc3c2=O)cc1)NS(=O)(=O)c1ccc(Cl)s1 [Example 102] | > 30 µM
11 | O=C(Nc1ccc(-n2c(=O)[nH]c3cc(NCc4nc5ccccc5s4)ccc3c2=O)cc1)NS(=O)(=O)c1ccc(Cl)s1 [Example 94] | > 30 µM
12 | O=C(Nc1ccc(-n2c(=O)[nH]c3cc(NCc4ccc(Cl)o4)ccc3c2=O)cc1)NS(=O)(=O)c1ccc(Cl)s1 [Example 72] | 10 to 30 µM
13 | Cc1nc(C)c(CNc2ccc3c(=O)n(-c4ccc(NC(=O)NS(=O)(=O)c5ccc(Cl)s5)cc4)c(=O)[nH]c3c2)s1 [Example 65] | > 30 µM
14 | O=C(Nc1ccc(-n2c(=O)[nH]c3cc(NCc4cncs4)ccc3c2=O)cc1)NS(=O)(=O)c1ccc(Cl)s1 [Example 61] | 10 to 30 µM
15 | O=C(Nc1ccc(-n2c(=O)[nH]c3cc(NCc4ccc(Cl)cc4)ccc3c2=O)cc1)NS(=O)(=O)c1ccc(Cl)s1 [Example 12] | < 10 µM
16 | Cc1csc(CNc2ccc3c(=O)n(-c4ccc(NC(=O)NS(=O)(=O)c5ccc(Cl)s5)cc4)c(=O)[nH]c3c2)c1 [Example 53] | 10 to 30 µM
17 | O=C(NS(=O)(=O)c1ccc(Cl)s1)c1ccc(-n2c(=O)[nH]c3cc(NCc4ccc(F)cc4)ccc3c2=O)cc1 [Example 106, 4-(7-(4-fluorobenzylamino)-2,4-dioxo-1,2-dihydroquinazolin-3(4H)-yl)-N-(5-chlorothiophen-2-ylsulfonyl)benzamide] | < 10 µM
18 | O=C(Nc1ccc(-n2c(=O)[nH]c3cc(NCc4ccc(Cl)s4)ccc3c2=O)cc1)NS(=O)(=O)c1ccc(Cl)s1 [Example 51] | < 10 µM
